Test results as given in PubChem BioAssay (NCI).
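Each compound was tested at five concentrations against cells in 96-well plates for 48 hours. GI50 marks 50% less growth. TGI marks complete inhibition of growth.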

Assays:
Experiment in all cases: DTP human tumour cell line panel, 48 h
OVCAR-4 ovarian = tested on: OVCAR-4 ovarian
K-562 leukemia = tested on: K-562 leukemia
MALME-3M melanoma = tested on: MALME-3M melanoma
RPMI-8226 leukemia = tested on: RPMI-8226 leukemia
UACC-62 melanoma = tested on: UACC-62 melanoma
RXF 393 renal = tested on: RXF 393 renal
DU-145 prostate = tested on: DU-145 prostate
SF-268 CNS = tested on: SF-268 CNS
HCT-15 colon = tested on: HCT-15 colon
LOX IMVI melanoma = tested on: LOX IMVI melanoma

| Compound | GI50 (OVCAR-4 ovarian) | TGI (OVCAR-4 ovarian) | GI50 (K-562 leukemia) | TGI (K-562 leukemia) | GI50 (MALME-3M melanoma) | TGI (MALME-3M melanoma) | GI50 (RPMI-8226 leukemia) | TGI (RPMI-8226 leukemia) | GI50 (UACC-62 melanoma) | TGI (UACC-62 melanoma) | GI50 (RXF 393 renal) | TGI (RXF 393 renal) | GI50 (DU-145 prostate) | TGI (DU-145 prostate) | GI50 (SF-268 CNS) | TGI (SF-268 CNS) | GI50 (HCT-15 colon) | TGI (HCT-15 colon) | GI50 (LOX IMVI melanoma) | TGI (LOX IMVI melanoma) |
| --- | --- | --- | --- | --- | --- | --- | --- | --- | --- | --- | --- | --- | --- | --- | --- | --- | --- | --- | --- | --- |
| CN(C)CCNC(=O)c1cc2c3cc(Cl)ccc3[nH]c2c2ncccc12 | 4.89 µM | 19.6 µM | 1.68 µM | 3.98 µM | 1.89 µM | 3.94 µM | 1.78 µM | 3.84 µM | 1.94 µM | 3.77 µM | 1.74 µM | 4.28 µM | 3.4 µM | 12.7 µM | 2.81 µM | 11.8 µM | 1840 nM | 4.9 µM | 1.51 µM | 2.92 µM |
| COc1cccc2c1nc(C(F)F)n2-c1nc(-c2ccc(NS(=O)(=O)CCN(C)C)cc2)nc(N2CCOCC2)n1 | 0.138 µM | 2.58 µM | 1.2 µM | 11.4 µM | 0.0333 µM | 0.317 µM | 0.272 µM | 2.41 µM | 0.134 µM | 1.45 µM | 0.105 µM | 0.58 µM | 0.162 µM | 11.7 µM | 0.157 µM | 13.3 µM | 152 nM | 5.06 µM | 0.176 µM | 2.13 µM |
| O=C(/C=C\c1ccc(O)c(O)c1)c1ccccc1O | 8.73 µM | 98.7 µM | 12.5 µM | 71.5 µM | 11.4 µM | 32.5 µM | 0.578 µM | 29.6 µM | 12.1 µM | 26.1 µM | 4.21 µM | 17.2 µM | 11.7 µM | 45.3 µM | 12.1 µM | 59 µM | 2520 nM | 19.1 µM | 11 µM | 23.1 µM |
| CS(=O)(=O)OCCN(CCOS(C)(=O)=O)c1ccc(C=Nc2ccc(-c3csc(COc4ccccc4)n3)cc2)cc1 |  | 49.1 µM |  | > 76 µM |  | 28.8 µM |  | 67.5 µM |  | 19.8 µM |  | 1.85 µM |  | 14.2 µM |  | 14.6 µM |  | 22.4 µM |  | 18.1 µM |
| CN1C(=O)C(c2c[nH]c3ccccc23)=C(c2c[nH]c3ccccc23)C1=O | 7.58 µM | > 25 µM | 7.77 µM | > 25 µM | 7.44 µM | > 20.8 µM | 6.84 µM | 25 µM | 3.07 µM | 17.3 µM | 4.41 µM | 12.8 µM | 9.38 µM | > 25 µM | 7.27 µM | > 25 µM | 5770 nM | > 25 µM | 3.73 µM | 9.3 µM |
| NS(=O)(=O)c1ccc(N(/C=C/C(=O)C(F)(F)F)CC(=O)c2ccc(F)cc2)cc1 | 57.1 µM | > 100 µM | 14 µM | 54.6 µM | 43.1 µM | 78.9 µM | 19.5 µM | 55.8 µM | 17.6 µM | 31.9 µM | 44 µM | > 100 µM | 20.6 µM | 52.2 µM | 34.8 µM | > 100 µM | 23600 nM | 85.5 µM | 13.8 µM | 34.6 µM |
| Cc1c2cnccc2c(C)c2c1c1ccccc1n2CCOC(=O)c1ccccc1 |  | 49.3 µM |  | 44.5 µM |  | 28.8 µM |  | 42 µM |  | 34.8 µM |  | 27.3 µM |  | > 100 µM |  | 79.5 µM |  | 59.2 µM |  | 33.7 µM |
| O=C1NC(=O)C(c2c[nH]c3ccccc23)=C1c1c[nH]c2ccccc12 | 10.9 µM | > 25 µM | 11.1 µM | > 25 µM | > 14.7 µM | > 25 µM | 9.48 µM | > 25 µM | 12.1 µM | > 25 µM | 4.57 µM | 24.3 µM | > 21.2 µM | > 25 µM | 16.3 µM | > 25 µM | 8320 nM | > 25 µM | 5.31 µM | > 25 µM |
| O=P1(NCCCl)OCCCN1CCCl (stereo not drawn) |  | 447 µM |  | 466 µM |  | 399 µM |  | 428 µM |  | 419 µM |  | 445 µM |  | > 500 µM |  | 426 µM |  | 429 µM |  | 402 µM |
| CCCCn1c(=O)[nH]c(N)c([C@@H]2c3c([nH]c(=O)n(CCCC)c3=O)Oc3ccc4ccccc4c32)c1=O | 2.26 µM | 10.8 µM | 12.2 µM | 51.2 µM | 2.34 µM | 7.02 µM | 3.48 µM | 13.5 µM | 1.67 µM | 3.36 µM | 2.17 µM | 4.27 µM | 1.8 µM | 3.25 µM | 1.76 µM | 3.58 µM | 1670 nM | 3.41 µM | 1.29 µM | 2.69 µM |
| O=C(NCc1cn(Cc2cccc(Oc3ccccc3)c2)nn1)c1cccnc1Nc1ccc(F)cc1 | 23.4 µM | > 100 µM | > 100 µM | > 100 µM | 15.1 µM | > 100 µM | > 100 µM | > 100 µM | 6.51 µM | > 100 µM | 5.69 µM | 42 µM | 8.58 µM | > 100 µM | 21 µM | > 100 µM |  |  | 61.3 µM | > 100 µM |
